Assays:
Test in all cases: Post-emergence efficacy, glasshouse, evaluated after 13 days
Format in all cases: in vivo
[1] = tested on: Digitaria sanguinalis (DIGSA); settings: Digitaria sanguinalis, 312 h; post-emergence application, 500 g/Ha, evaluated after 13 days; read-out: Control of weed species DIGSA (100=total damage to plant; 0=no damage to plant)
Method in brief: (§1)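 Damage was rated visually 13 days after treatment on a 0–100 scale, where 100 meant total damage. Plants had been raised for 14 days in soil under glasshouse conditions (24/16 °C, 14 h light, 65% humidity) before spraying with an aqueous dilution of an IF50-based formulation.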

Eleusine indica (ELEIN) = settings: Eleusine indica, 312 h; post-emergence application, 500 g/Ha, evaluated after 13 days; read-out: Control of weed species ELEIN (100=total damage to plant; 0=no damage to plant)
Method in brief: as §1

Lolium perenne (LOLPE) = settings: Lolium perenne, 312 h; post-emergence application, 500 g/Ha, evaluated after 13 days; read-out: Control of weed species LOLPE (100=total damage to plant; 0=no damage to plant)
Method in brief: as §1

[2] = tested on: Euphorbia heterophylla (EPHHL); settings: Euphorbia heterophylla, 312 h; post-emergence application, 500 g/Ha, evaluated after 13 days; read-out: Control of weed species EPHHL (100=total damage to plant; 0=no damage to plant)
Method in brief: as §1

[3] = tested on: Amaranthus palmeri (AMAPA); settings: Amaranthus palmeri, 312 h; post-emergence application, 500 g/Ha, evaluated after 13 days; read-out: Control of weed species AMAPA (100=total damage to plant; 0=no damage to plant)
Method in brief: as §1

[4] = tested on: Echinochloa crus-galli (ECHCG); settings: Echinochloa crus-galli, 312 h; post-emergence application, 500 g/Ha, evaluated after 13 days; read-out: Control of weed species ECHCG (100=total damage to plant; 0=no damage to plant)
Method in brief: as §1

[5] = tested on: Chenopodium album (CHEAL); settings: Chenopodium album, 312 h; post-emergence application, 500 g/Ha, evaluated after 13 days; read-out: Control of weed species CHEAL (100=total damage to plant; 0=no damage to plant)
Method in brief: as §1

[6] = tested on: Ipomoea hederacea (IPOHE); settings: Ipomoea hederacea, 312 h; post-emergence application, 500 g/Ha, evaluated after 13 days; read-out: Control of weed species IPOHE (100=total damage to plant; 0=no damage to plant)
Method in brief: as §1

Setaria faberi (SETFA) = settings: Setaria faberi, 312 h; post-emergence application, 500 g/Ha, evaluated after 13 days; read-out: Control of weed species SETFA (100=total damage to plant; 0=no damage to plant)
Method in brief: as §1

SMILES	pest or weed control at 500 g/ha [1] [%]	pest or weed control at 500 g/ha (Eleusine indica (ELEIN)) [%]	pest or weed control at 500 g/ha (Lolium perenne (LOLPE)) [%]	pest or weed control at 500 g/ha [2] [%]	pest or weed control at 500 g/ha [3] [%]	pest or weed control at 500 g/ha [4] [%]	pest or weed control at 500 g/ha [5] [%]	pest or weed control at 500 g/ha [6] [%]	pest or weed control at 500 g/ha (Setaria faberi (SETFA)) [%]
CCCNC(=O)c1cc[n+](CCS(=O)(=O)[O-])nc1 [Compound A51]	90	20	20	60	50	60	70	60	60
COCCNC(=O)c1cc[n+](CCS(=O)(=O)[O-])nc1 [Compound A52]	90	20	30	60	100	80	100	60	80
CNC(=O)c1cn[n+](CCC(=O)O)cc1C [Compound A53]	80	40	20	60	90	70	70	50	90
O=C(O)CC[n+]1ccc(C(=O)NC2CCCCC2)cn1 [Compound A59]	60	20	20	10	70	20	50	20	30
CCNC(=O)c1cc[n+](CC(C)C(=O)O)nc1 (stereo not drawn) [Compound A60]	100	100	100	90	100	60	20	70	100
CCNC(=O)c1cc[n+](C(C)CC(=O)O)nc1 (stereo not drawn) [Compound A61]	100	90	80	80	100	50	90	70	50
CC(CC(=O)O)[n+]1ccc(C(=O)NC2(C#N)CC2)cn1 (stereo not drawn) [Compound A62]	70	90	70	100	100	80	90	30	70
CN(C)C(=O)c1cn[n+](CCS(=O)(=O)O)cc1-c1ccccc1 [Compound A64]	40	40	20	40	100	50	30	30	30
O=C(O)CC[n+]1ccc(C(=O)NCC2CC2)cn1 [Compound A65]	100	90	50	100	90	50	90	20	100
O=C(O)CC[n+]1ccc(C(=O)NC2CSC2)cn1 [Compound A69]	100	30	40	70	90	100	60	40	100
